Results from publication PMC9382192, “Combined treatment with epigenetic agents enhances anti-tumor activity of MAGE-D4 peptide-specific T cells by upregulating the MAGE-D4 expression in glioma” (Frontiers in Oncology, 2022).

Experiments:
U251 = experiment: LDH cytotoxicity assay and HLA block, U251; type: cell-based, human
Method: The human glioma cell lines (U87-MG and U251) were obtained from the Cell Bank of Type Culture Collection of the Chinese Academy of Science (Shanghai, China). Decitabine (DAC, CAS No. A3656), valproic acid (VPA, CAS No. 99-66-1), and trichostatin A (TSA, CAS No. 58880-19-6) were purchased from Sigma-Aldrich Corporation (St. Louis, MO, USA). DAC and TSA were dissolved in DMSO to a concentration of 10 mM. Aliquots were stored at −80°C and diluted with media before being used. Drug treatments were divided into seven groups: (1) DAC group: cells were cultured in medium on the presence of 1 μM DAC for 120 h; (2) VPA group: cells were grown in medium containing 1 mM VPA for 120 h; (3) TSA group: cells were cultured in medium supplemented with 1 μM TSA for 24 h; (4) D + V group: cells were cultured with 1 μM DAC and 1 mM VPA for 120 h; (5) D + T group: cells were cultured with 1 μM DAC for 120 h, followed by 1 μM TSA for 24 h; (6) Control group: cells were cultured with 0.09% DMSO, which is the highest concentration of DMSO used in this study in consideration of the potential toxicity of DMSO to living cells. Human recombinant interleukin (IL) IL-2, IL-4, and human recombinant granulocyte/macrophage colony-stimulating factor (GM-CSF) were purchased from R&D Systems.
The cytotoxic activity of MAGE-D4 peptide-specific CTLs to glioma cells was determined according to the instructions of the manufacturers by our published method ([31]). […] Four hours later, suspended cells were collected for CD107a flow cytometry, meanwhile, the supernatant was collected and analyzed with granzyme A and perforin ELISA kit (Cloud-Clone Corporation, Wuhan, China) at 450 nm, and the LDH kit (Promega, USA) at 490 nm. The percentage of specific lysis was calculated using the following formula: [(experimental release − spontaneous release)/(maximum release − spontaneous release)] × 100. […] Then, the cytotoxicity assay was measured and calculated as mentioned above.

IFN-γ = IFN-γ ELISPOT; type: cell-based, human; conditions: 1 × 10^6 T cells/well stimulated by peptide-pulsed DCs, 20 h
Method: The number of T cells secreting IFN-γ was measured by ELISPOT using Human IFN-γ precoated ELISPOT kit (Dakewe, Beijing, China). Briefly, RPMI 1640 complete medium was added for 5–10 min to activate the pre-coated plate. T cells (1 × 10^6/well) stimulated by peptide-pulsed DCs were added to each well and incubated in a 37°C 5% CO2 incubator for 20 h. After lysis in cold water, the biotin-labeled antibody was added and incubated at 37°C for 1 h, then the enzyme-labeled avidin was added and incubated at 37°C for 1 h. The spots present in each well were scanned using the CTL ELISPOT analyzer and counted using the ImmunoSpot Professional Software.

U87 glioma tissues = experiment: CD8 immunohistochemistry of xenograft tissue; type: in vivo, BALB/C nude female mice; conditions: MAGE-D4-specific T cells in TSA-treated U87 glioma tissues, IHC
Method: Eighteen BALB/C nude female mice aged 4 weeks were provided by the Guangxi Experimental Animal Center. The mice were placed in a light-controlled room at 24 ± 1 °C (light: 7:00–19:00 h, dark: 19:00–7:00 h) and fed under specific pathogen-free conditions. All protocols followed the guidelines of the National Research Council for the Care and Use of Laboratory Animals and were approved by the Animal Ethics Committee of Guangxi Medical University. To develop a xenograft model, 4 × 10^6 U87 cells were inoculated into the flanks of the mice subcutaneously. Two weeks later, mice simultaneously received intraperitoneal peritumorally injections of TSA (0.5 mg/kg) and 1 × 10^7 peptides loaded on CD8^+ T cells, respectively. Every […], tumor volumes were measured simultaneously with a caliper. Mice were sacrificed by euthanasia when visibly ill. Mice injected with negative peptide-induced CTLs and CTLs without peptides were included as controls. The tumor volumes were calculated using the following formula: tumor volume = [(width2 × length)/2]. Immunochemistry was conducted to detect expressions of CD8 on tissue sections. […] Integrated optical density (IOD) was measured by image-Pro Plus software (version 6.0, Media Cybernetics, MD, USA) for images of five randomly selected regions from a slice. The results were expressed as average optical density (AOD = IOD/area).

Row | Molecule | cytotoxicity of peptide-specific T cells (specific lysis, LDH) (U251; DAC + TSA-treated U251, E:T 50:1, 4 h) | killing efficiency after HLA I block (U251; target cells pre-incubated with HLA-ABC antibody 50 μg/ml, 37°C 40 min, versus groups without anti-HLA antibodies, Figure 6I) | number of IFN-γ secreting T cells (ELISPOT) (IFN-γ) | CD8+ T-cell infiltration in tumor tissue (U87 glioma tissues)
1 | CLPPPNVIL [Peptide P8] | cytotoxicity on the DAC + TSA-treated U251 cells with statistical significance | significantly decreased | more than that in others | 
2 | CC(/C=C/C(=O)NO)=C\[C@@H](C)C(=O)c1ccc(N(C)C)cc1 [TSA, trichostatin A] |  |  |  | highest degree
